# Test results reported in US10457691B2, “Macrocyclic kinase inhibitors and uses thereof” (Dana-Farber Cancer Institute, Inc., priority 2014, dated 2019).
# Tests used:
# Format in all cases: biochemical
# Settings in all cases: read-out: Activity of the protein kinase when treated with compound I-1 (% control)
# [1] = biological target: CAMKKb (Homo sapiens, UniProt Q96RR4); assay: Protein kinase assay ([γ-32P] ATP), CAMKKb
# Description: (§1) In another set of experiments, the activities of the compounds described herein against various protein kinases were determined according to the methods reported in Hastie et al., Nature Protocols, 2006, 1, 968-971.
# (§2) Enzyme dilution buffer. This buffer consisted of 50 mM Tris-HCl, pH 7.5, 0.1 mM EGTA, 1 mg ml^−1 bovine serum albumin and 0.1% (vol/vol) 2-mercaptoethanol.
# (§3) 10× concentrated assay buffer. An assay buffer of 500 mM Tris-HCl, pH 7.5, 1 mM EGTA, and 100 mM magnesium acetate was used for assay of a wide variety of protein kinases. In some experiments, other cofactors were included (e.g., calcium ions and calmodulin were included for assay of calcium-calmodulindependent protein kinases).
# (§4) 1 mM [γ-^32P] ATP. The specific activity of the [γ-^32P] ATP solution was 1×10^5 to 1×10^6 c.p.m. per nmol depending on what was needed to produce an optimal signal/noise ratio. […] To measure the concentration of ATP, a sample of such a stock solution was diluted to 20 μM, and the absorbance of the diluted sample was measured at 259 nm. The absorbance of a 20-μM stock solution of ATP at 259 nm was about 0.31. […] ATP to produce a radioactivity of 1×10^5 to 1×10^6 c.p.m. per nmol. […]
# (§5) 13) Measure radioactivity in the samples by Cerenkov counting (e.g., without liquid scintillation fluid) in a liquid scintillation counter using a “^32P program”. […]
# [2] = biological target: DDR2 (Homo sapiens, UniProt Q16832); assay: Protein kinase assay ([γ-32P] ATP), DDR2
# Description: as §1, §2, §3, §4, §5
# [3] = biological target: FGF-R1 (Homo sapiens, UniProt P11362); assay: Protein kinase assay ([γ-32P] ATP), FGF-R1
# Sequence of FGF-R1 (P11362 22-822): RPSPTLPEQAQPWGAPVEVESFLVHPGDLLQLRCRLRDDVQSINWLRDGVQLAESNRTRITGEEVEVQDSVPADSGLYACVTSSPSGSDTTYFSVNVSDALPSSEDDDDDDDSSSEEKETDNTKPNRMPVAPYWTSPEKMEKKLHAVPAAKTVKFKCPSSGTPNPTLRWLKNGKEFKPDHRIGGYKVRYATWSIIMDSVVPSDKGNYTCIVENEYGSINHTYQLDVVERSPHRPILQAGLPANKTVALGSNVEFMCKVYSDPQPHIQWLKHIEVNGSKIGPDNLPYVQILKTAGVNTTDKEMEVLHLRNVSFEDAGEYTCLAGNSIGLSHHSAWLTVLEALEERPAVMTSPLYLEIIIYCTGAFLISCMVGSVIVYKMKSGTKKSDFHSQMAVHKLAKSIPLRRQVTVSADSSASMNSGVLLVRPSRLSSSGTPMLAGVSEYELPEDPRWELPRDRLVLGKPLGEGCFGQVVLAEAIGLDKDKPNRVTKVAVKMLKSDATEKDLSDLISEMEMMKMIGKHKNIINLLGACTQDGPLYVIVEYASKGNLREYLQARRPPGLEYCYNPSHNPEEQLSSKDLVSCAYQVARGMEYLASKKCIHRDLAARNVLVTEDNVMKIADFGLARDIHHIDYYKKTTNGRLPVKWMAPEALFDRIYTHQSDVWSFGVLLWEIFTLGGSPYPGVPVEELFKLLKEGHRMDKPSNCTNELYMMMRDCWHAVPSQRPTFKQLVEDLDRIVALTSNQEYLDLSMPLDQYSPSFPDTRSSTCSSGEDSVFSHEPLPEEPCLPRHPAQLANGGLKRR
# Description: as §1, §2, §3, §4, §5
# [4] = biological target: IRAK1 (Homo sapiens, UniProt P51617); assay: Protein kinase assay ([γ-32P] ATP), IRAK1
# Description: as §1, §2, §3, §4, §5
# [5] = biological target: JAK2 (Homo sapiens, UniProt O60674); assay: Protein kinase assay ([γ-32P] ATP), JAK2
# Description: as §1, §2, §3, §4, §5
# [6] = biological target: JNK3 (Homo sapiens, UniProt P53779); assay: Protein kinase assay ([γ-32P] ATP), JNK3
# Description: as §1, §2, §3, §4, §5
# [7] = biological target: LKB1 (Homo sapiens, UniProt Q15831); assay: Protein kinase assay ([γ-32P] ATP), LKB1
# Sequence of LKB1 (Q15831 whole entry): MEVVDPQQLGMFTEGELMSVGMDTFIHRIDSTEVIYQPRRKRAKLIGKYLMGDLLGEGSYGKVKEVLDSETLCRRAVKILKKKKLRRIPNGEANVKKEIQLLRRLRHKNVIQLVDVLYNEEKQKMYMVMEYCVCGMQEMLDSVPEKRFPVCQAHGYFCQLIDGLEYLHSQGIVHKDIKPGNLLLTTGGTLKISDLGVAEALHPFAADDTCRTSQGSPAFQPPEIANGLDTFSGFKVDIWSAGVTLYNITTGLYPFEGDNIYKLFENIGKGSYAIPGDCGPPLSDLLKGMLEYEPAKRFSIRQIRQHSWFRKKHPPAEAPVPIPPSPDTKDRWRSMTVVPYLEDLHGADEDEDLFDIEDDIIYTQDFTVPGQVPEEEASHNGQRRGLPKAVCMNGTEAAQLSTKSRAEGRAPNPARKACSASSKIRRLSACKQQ
# Sequence of LKB1 (Q7RTN6 whole entry partner): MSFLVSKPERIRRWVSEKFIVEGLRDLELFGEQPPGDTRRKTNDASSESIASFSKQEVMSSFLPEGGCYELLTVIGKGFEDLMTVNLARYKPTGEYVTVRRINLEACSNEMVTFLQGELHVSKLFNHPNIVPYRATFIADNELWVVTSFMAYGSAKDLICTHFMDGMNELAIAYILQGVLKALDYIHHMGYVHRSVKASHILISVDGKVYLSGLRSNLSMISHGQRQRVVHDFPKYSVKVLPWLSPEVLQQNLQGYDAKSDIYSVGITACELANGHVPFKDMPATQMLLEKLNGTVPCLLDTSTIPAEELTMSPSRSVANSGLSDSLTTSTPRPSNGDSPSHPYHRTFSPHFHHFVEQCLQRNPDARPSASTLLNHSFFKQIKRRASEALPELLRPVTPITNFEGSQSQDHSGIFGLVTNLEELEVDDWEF
# Sequence of LKB1 (Q9Y376 whole entry partner): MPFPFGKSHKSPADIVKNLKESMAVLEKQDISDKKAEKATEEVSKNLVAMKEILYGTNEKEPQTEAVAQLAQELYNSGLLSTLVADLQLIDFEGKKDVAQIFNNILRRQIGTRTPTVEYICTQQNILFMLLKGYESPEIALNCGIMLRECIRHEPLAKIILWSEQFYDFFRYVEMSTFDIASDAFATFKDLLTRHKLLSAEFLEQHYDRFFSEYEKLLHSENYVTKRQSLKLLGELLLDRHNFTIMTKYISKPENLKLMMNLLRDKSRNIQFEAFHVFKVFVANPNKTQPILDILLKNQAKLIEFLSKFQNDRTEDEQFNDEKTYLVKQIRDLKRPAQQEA
# Description: as §1, §2, §3, §4, §5
# [8] = biological target: MAPKAP-K2 (Homo sapiens, UniProt P49137); assay: Protein kinase assay ([γ-32P] ATP), MAPKAP-K2
# Description: as §1, §2, §3, §4, §5
# [9] = biological target: MKK1 (Homo sapiens, UniProt Q02750); assay: Protein kinase assay ([γ-32P] ATP), MKK1
# Sequence of MKK1 (Q02750 whole entry): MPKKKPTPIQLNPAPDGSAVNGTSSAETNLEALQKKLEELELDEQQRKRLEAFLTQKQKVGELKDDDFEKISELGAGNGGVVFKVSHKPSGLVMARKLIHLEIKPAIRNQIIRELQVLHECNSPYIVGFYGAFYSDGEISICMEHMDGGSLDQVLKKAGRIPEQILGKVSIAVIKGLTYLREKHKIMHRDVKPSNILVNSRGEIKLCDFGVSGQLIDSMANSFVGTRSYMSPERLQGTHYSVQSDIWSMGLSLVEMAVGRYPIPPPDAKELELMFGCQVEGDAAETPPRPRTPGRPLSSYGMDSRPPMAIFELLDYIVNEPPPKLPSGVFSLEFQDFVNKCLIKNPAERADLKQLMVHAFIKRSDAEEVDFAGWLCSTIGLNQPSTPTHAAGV
# Description: as §1, §2, §3, §4, §5
# [10] = biological target: MSK1 (Homo sapiens, UniProt O75582); assay: Protein kinase assay ([γ-32P] ATP), MSK1
# Description: as §1, §2, §3, §4, §5
# [11] = biological target: p38a MAPK (Homo sapiens, UniProt Q16539); assay: Protein kinase assay ([γ-32P] ATP), p38a MAPK
# Sequence of p38a MAPK (Q16539 whole entry): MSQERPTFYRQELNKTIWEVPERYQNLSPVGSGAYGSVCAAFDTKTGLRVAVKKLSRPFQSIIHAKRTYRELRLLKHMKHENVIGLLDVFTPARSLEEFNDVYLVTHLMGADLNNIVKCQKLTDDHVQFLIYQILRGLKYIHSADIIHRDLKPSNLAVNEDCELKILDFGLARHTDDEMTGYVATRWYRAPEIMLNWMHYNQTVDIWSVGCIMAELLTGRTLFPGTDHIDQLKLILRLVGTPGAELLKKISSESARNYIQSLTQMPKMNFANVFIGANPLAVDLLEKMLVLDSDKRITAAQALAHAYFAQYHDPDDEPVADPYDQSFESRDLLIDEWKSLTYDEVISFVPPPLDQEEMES
# Description: as §1, §2, §3, §4, §5
# [12] = biological target: PKCz (Homo sapiens, UniProt Q05513); assay: Protein kinase assay ([γ-32P] ATP), PKCz
# Description: as §1, §2, §3, §4, §5
# [13] = biological target: PLK1 (Homo sapiens, UniProt P53350); assay: Protein kinase assay ([γ-32P] ATP), PLK1
# Sequence of PLK1 (P53350 whole entry, species assumed): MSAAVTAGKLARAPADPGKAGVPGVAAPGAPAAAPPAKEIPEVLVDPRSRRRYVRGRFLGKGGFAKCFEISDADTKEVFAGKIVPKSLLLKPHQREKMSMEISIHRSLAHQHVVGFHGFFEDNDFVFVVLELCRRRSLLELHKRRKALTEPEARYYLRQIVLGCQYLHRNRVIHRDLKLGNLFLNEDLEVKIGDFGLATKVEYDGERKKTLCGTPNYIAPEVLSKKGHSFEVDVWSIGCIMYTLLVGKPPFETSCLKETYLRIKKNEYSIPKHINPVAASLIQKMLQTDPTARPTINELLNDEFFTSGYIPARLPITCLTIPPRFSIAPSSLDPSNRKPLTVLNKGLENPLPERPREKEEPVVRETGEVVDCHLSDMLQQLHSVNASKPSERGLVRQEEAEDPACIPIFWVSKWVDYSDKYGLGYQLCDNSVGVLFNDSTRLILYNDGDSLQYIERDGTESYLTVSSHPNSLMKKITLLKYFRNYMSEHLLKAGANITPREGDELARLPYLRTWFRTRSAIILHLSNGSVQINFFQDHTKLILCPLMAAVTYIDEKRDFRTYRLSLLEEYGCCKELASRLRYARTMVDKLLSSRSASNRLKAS
# Description: as §1, §2, §3, §4, §5
# [14] = biological target: RSK2 (Homo sapiens, UniProt P51812); assay: Protein kinase assay ([γ-32P] ATP), RSK2
# Description: as §1, §2, §3, §4, §5
# [15] = biological target: TIE2 (Homo sapiens, UniProt Q02763); assay: Protein kinase assay ([γ-32P] ATP), TIE2
# Sequence of TIE2 (Q02763 23-1124, species assumed): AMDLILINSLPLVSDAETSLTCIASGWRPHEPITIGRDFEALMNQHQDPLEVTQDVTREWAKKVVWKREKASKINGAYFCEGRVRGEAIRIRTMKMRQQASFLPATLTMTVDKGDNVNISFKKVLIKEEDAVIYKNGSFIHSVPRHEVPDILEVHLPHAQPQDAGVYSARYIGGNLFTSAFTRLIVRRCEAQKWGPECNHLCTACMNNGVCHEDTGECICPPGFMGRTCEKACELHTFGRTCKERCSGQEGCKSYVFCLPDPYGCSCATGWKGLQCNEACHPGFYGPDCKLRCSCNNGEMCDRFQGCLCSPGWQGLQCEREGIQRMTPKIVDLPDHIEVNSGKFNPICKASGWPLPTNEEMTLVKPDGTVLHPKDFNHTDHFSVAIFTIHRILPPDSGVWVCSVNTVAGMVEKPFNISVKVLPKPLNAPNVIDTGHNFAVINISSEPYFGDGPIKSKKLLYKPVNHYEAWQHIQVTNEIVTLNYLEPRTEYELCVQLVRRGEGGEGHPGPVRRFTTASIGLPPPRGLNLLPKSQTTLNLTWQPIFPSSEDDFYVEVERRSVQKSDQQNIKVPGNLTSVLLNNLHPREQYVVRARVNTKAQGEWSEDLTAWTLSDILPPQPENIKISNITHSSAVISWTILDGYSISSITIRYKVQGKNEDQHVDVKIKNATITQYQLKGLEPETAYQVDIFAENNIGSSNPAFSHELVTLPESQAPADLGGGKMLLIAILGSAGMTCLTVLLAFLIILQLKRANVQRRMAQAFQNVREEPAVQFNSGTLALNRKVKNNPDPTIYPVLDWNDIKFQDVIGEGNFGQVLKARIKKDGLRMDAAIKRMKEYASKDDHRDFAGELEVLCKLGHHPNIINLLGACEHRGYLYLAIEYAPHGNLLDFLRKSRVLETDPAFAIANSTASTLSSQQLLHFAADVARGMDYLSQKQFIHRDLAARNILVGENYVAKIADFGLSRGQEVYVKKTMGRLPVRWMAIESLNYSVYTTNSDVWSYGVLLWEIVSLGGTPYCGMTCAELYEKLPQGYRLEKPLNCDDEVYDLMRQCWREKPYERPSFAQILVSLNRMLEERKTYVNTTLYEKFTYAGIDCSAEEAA
# Description: as §1, §2, §3, §4, §5
# [16] = biological target: TSSK1 (Homo sapiens, UniProt Q9BXA7); assay: Protein kinase assay ([γ-32P] ATP), TSSK1
# Sequence of TSSK1 (Q9BXA7 whole entry, species assumed): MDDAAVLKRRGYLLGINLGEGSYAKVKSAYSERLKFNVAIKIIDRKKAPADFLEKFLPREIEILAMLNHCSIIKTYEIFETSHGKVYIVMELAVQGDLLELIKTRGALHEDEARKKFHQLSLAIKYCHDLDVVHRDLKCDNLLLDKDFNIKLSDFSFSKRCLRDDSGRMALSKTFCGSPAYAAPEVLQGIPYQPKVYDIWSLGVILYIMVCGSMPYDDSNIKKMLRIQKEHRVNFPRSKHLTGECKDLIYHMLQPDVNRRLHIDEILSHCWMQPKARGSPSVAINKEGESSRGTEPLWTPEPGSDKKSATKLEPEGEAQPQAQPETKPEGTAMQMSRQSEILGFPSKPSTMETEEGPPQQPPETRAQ
# Description: as §1, §2, §3, §4, §5
# [17] = biological target: ZAP70 (Homo sapiens, UniProt P43403); assay: Protein kinase assay ([γ-32P] ATP), ZAP70
# Description: as §1, §2, §3, §4, §5
# [18] = 0.1 μM of compound I-1, DMSO control = 100%
# [19] = 1 μM of compound I-1, DMSO control = 100%
smiles,measurement,setting,value
Cc1cccc(C)c1NC(=O)N1C/C=C\COc2cccc(c2)Nc2cc1ncn2 [Compound I-1],remaining activity at 0.1 µM,[1]; [18],101%
same,remaining activity at 1 µM,[1]; [19],88%
same,remaining activity at 0.1 µM,[2]; [18],28%
same,remaining activity at 1 µM,[2]; [19],3%
same,remaining activity at 0.1 µM,[3]; [18],41%
same,remaining activity at 1 µM,[3]; [19],12%
same,remaining activity at 0.1 µM,[4]; [18],105%
same,remaining activity at 1 µM,[4]; [19],83%
same,remaining activity at 0.1 µM,[5]; [18],100%
same,remaining activity at 1 µM,[5]; [19],72%
same,remaining activity at 0.1 µM,[6]; [18],51%
same,remaining activity at 1 µM,[6]; [19],30%
same,remaining activity at 0.1 µM,[7]; [18],99%
same,remaining activity at 1 µM,[7]; [19],65%
same,remaining activity at 0.1 µM,[8]; [18],88%
same,remaining activity at 1 µM,[8]; [19],84%
same,remaining activity at 0.1 µM,[9]; [18],96%
same,remaining activity at 1 µM,[9]; [19],81%
same,remaining activity at 0.1 µM,[10]; [18],107%
same,remaining activity at 1 µM,[10]; [19],81%
same,remaining activity at 0.1 µM,[11]; [18],79%
same,remaining activity at 1 µM,[11]; [19],14%
same,remaining activity at 0.1 µM,[12]; [18],111%
same,remaining activity at 1 µM,[12]; [19],82%
same,remaining activity at 0.1 µM,[13]; [18],104%
same,remaining activity at 1 µM,[13]; [19],101%
same,remaining activity at 0.1 µM,[14]; [18],98%
same,remaining activity at 1 µM,[14]; [19],81%
same,remaining activity at 0.1 µM,[15]; [18],52%
same,remaining activity at 1 µM,[15]; [19],10%
same,remaining activity at 0.1 µM,[16]; [18],83%
same,remaining activity at 1 µM,[16]; [19],85%
same,remaining activity at 0.1 µM,[17]; [18],90%
same,remaining activity at 1 µM,[17]; [19],98%
